# Measurements reported in the supplement of paper PMC10307832.
# Compound: Cc1cc([C@@H](C)Nc2ccccc2C(=O)O)c2nc(N3CCOCC3)cc(=O)n2c1 [AZD6482] + CC1(C)CCC(c2ccc(Cl)cc2)=C(CN2CCN(c3ccc(C(=O)NS(=O)(=O)c4ccc(N[C@H](CCN5CCOCC5)CSc5ccccc5)c(S(=O)(=O)C(F)(F)F)c4)cc3)CC2)C1 [Navitoclax] (partner 0.5 µM)
# Experiment: relative viability (nuclei count vs DMSO), 5 days (fraction); higher = more cells survive
# Details: first compound 2.53 µM
# How it was run: (§1)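 After 5 days of treatment, lung cancer cells in 1536-well plates were fixed and stained in a single step (final 0.05% Triton X-100, 1% formaldehyde, 1 ug/ml Hoechst) and their nuclei counted on 4× images. Treatment had been applied by pin tool the day after seeding as one drug alone or as a fixed anchor-drug dose with five library-drug doses (not always all listed) in √10 steps. Relative viability is the nuclei count of treated wells divided by that of vehicle wells, and values are medians of duplicate plates.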
row,Cell Line,relative viability
1,NCI-H596,0.912
2,LK-2,0.681
3,NCI-H2087,0.818
4,SK-MES-1,0.493
5,H3255,0.314
6,COR-L23,0.756
7,COR-L 105,0.521
8,IA-LM,0.618
9,LOU-NH91,0.441
10,ChaGo-K-1,0.986
11,NCI-H2170,0.444
12,NCI-H2405,0.489
13,HCC-44,0.874
14,A549,0.607
15,NCI-H1299,0.917
16,NCI-H1792,0.341

# Same assay, conditions: first compound 8 µM
row,Cell Line,relative viability
1,NCI-H727,0.235
2,NCI-H1650,0.819
3,EBC-1,0.241
4,NCI-H1703,0.422
5,NCI-H1993,0.654
6,SW 1573,0.653
7,NCI-H838,0.623
8,NCI-H520,0.344
9,NCI-H2126,0.543
10,EMC-BAC-2,0.971
11,NCI-H2085,0.462
12,Calu-6,0.602
13,HCC-366,0.908
14,NCI-H1666,0.528
15,NCI-H596,0.836
16,LK-2,0.782
17,NCI-H2087,0.895
18,SK-MES-1,0.572
19,H3255,0.243
20,COR-L23,0.857
21,COR-L 105,0.633
22,IA-LM,0.744
23,LOU-NH91,0.518
24,ChaGo-K-1,1.1
25,NCI-H2170,0.476
26,NCI-H2405,0.509
27,HCC-44,0.459
28,A549,0.961
29,NCI-H1299,1.04
30,NCI-H1792,0.463

# Compound: Cc1cc([C@@H](C)Nc2ccccc2C(=O)O)c2nc(N3CCOCC3)cc(=O)n2c1 [AZD6482] + COc1cc2c(Oc3ccc(NC(=O)C4(C(=O)Nc5ccc(F)cc5)CC4)cc3F)ccnc2cc1OCCCN1CCOCC1 [Foretinib] (partner 0.25 µM)
# Experiment: as above
# Details: first compound 0.08 µM
# How it was run: as §1
row,Cell Line,relative viability
1,NCI-H2342,0.927
2,NCI-H1623,0.778
3,NCI-H727,0.828
4,NCI-H1650,0.902
5,EBC-1,0.102
6,NCI-H1703,0.266
7,NCI-H1993,0.674
8,SW 1573,0.792
9,NCI-H838,0.855
10,LCLC-103H,0.603
11,NCI-H520,0.423
12,NCI-H2126,1.08
13,EMC-BAC-2,0.861
14,NCI-H2085,0.62
15,Calu-6,0.789
16,HCC-366,0.938
17,NCI-H1666,0.914
18,NCI-H596,0.84
19,LK-2,1.3
20,NCI-H2087,1.07
21,SK-MES-1,0.519
22,H3255,1.03
23,COR-L23,0.888
24,COR-L 105,1.08
25,IA-LM,1.18
26,LOU-NH91,0.826
27,ChaGo-K-1,0.973
28,NCI-H2170,0.977
29,NCI-H2405,0.642
